Experimental findings from patent US4254128A, “2-Adamantyl hydrazines and biocidal compositions thereof” (Teva Pharmaceutical Industries Ltd., priority 1977, dated 1981) are described below.

Structures can show the parent of a compound that is named as a salt. Where two headings read alike, the source gives them in different places.

A word on the inhibition: it is how much of the control response was suppressed. Usually MIC stands for the lowest concentration that inhibits growth of the organism.

Data set [1] has as its system HSV-1 (Herpes Simplex). Kind of data set: Inhibition test on HSV replication. The class given is cell-based. The note with it: for inhibition at 100 µg/mL: 100 μg/ml; for inhibition at 200 µg/mL: 200 μg/ml. From the text: BSC-1 (Green monkey kidney)
**% Inhibition of control infected for some time with same virus PFV with […]

Data set [2] can be described thus: Toxic limit in the HSV replication test. Particulars: monkey, bsc-1 cells.
Data set [3] concerns 4 mycoplasma (M. gallisepticum, M. capricolum, M. hominis, A. laidlawii). Kind of data set: organism not typed. The class given is cell-based. Particulars: read-out: 50% inhibition of growth.
Data set [4] deals with L. tropica promastigotes. Kind of data set: Anti leishmania test, promastigotes in vitro. The class given is cell-based. The note with it: 27° C. On the procedure: (§1) b. promastigotes in Mc Coy's medium in vitro at 27° C.
+++=No viable parasites after 24 hours
++=No viable parasites after 48 hours
+=No viable parasites after 72 hours
±=No viable parasites after 96 hours p2 -=viable parasites after 120 hours.

Data set [5] has as its system Leishmania. Briefly: Anti leishmania tests, summary. The class given is cell-based, L. tropica. Particulars: summary in words. On the procedure: (§2) a. amastigotes in peritoneal exudate cells in Mc Coy's medium in vitro at 37° C.
as §1

The subject of data set [6] is Leptospira canicola Kipod 146. Kind of data set: Anti leptospiral activity (minimal inhibition concentration). The class given is cell-based. The note with it: for MIC: Leptospira interrogans, KIPOD146, 240 h. On the procedure:
The tests were carried out under the following conditions:
Leptospira: Leptospira canicola Kipod 146
Inoculum: 1-10^5 cells/ml
Incubation time: 10 days, 28° C.
Evaluation: Direct count in dark field microscopy after 4,7 and 10 days.
2 Minimal+0.5% albumin (Pentex)
3 Korthof rich medium with 8% serum.
4 Korthof rich medium with 2% serum.

Data set [7] has as its system L. tropica amastigotes. Kind of data set: Anti leishmania test, amastigotes in peritoneal exudate cells in vitro. It counts as cell-based. The note with it: 37° C. As to the method: as §2
+++=clearance of all parasites in 24 hours
++=clearance of all parasites in 48 hours
+=clearance of all parasites in 72 hours
±=Partial clearance of parasites in 72 hours or more
-=No activity against parasites.

Data set [8] has as its system albino rats. Briefly: Antiparkinson activity (catalepsy produced by haloperidol). The class given is in vivo, Male Charles River albino rats. Particulars: for anticataleptic effect: 80 mg/kg i.p.; for antiparkinson activity: summary in words. As to the method: Male Charles River albino rats, weighing 200-250 g, were used. Catalepsy was produced by haloperidol, 5 mg/kg i.p. The animals were placed with their front paws on a horizontal bar, about 10 cm above the ground, and animals were considered cataleptic if not changing posture for at least 30 sec. Cataleptic animals were injected i.p. with one of the drugs at a dose of 40-80 mg/kg. Catalepsy was estimated again at the intervals indicated.

Data set [9] deals with albino mice. Kind of data set: Stereotyped behaviour in mice. It counts as in vivo, Male ICR albino mice. On the set-up: stereotyped behaviour score / Total Score / Mean Score: scale not given here. On the procedure: Male ICR albino mice weighing 25-30 g were put in cages with a metal grid floor, 4 in each cage. Drugs were injected intraperitoneally and stereotyped behaviour (sniffing, biting, repetitive head movement) was evaluated every 30 min.

Data set [10] deals with albino mice. Kind of data set: Stereotyped behaviour in mice. Particulars: 50 mg/kg i.p. It counts as in vivo, Male ICR albino mice. Set-up: scale not given here.
The subject of data set [11] is Trypanosoma. Kind of data set: Anti trypanosoma test in vitro. It counts as cell-based. As to the method:
Trypanosoma in RPM1 medium in vitro at 37° C. Scoring as in b.

[12] abbreviates: Human alphaherpesvirus 1, 50 μg/ml, BSC-1 cells, 10 PFU/cell, read-out: % Inhibition.
Where [13] appears, read: Human alphaherpesvirus 1, BSC-1 cells, 10 PFU/cell.

`NC12CC3CC(CC(C3)C1)C2` [Amant., Amantadine, reference compound] gave an inhibition at 50 µg/mL in data set [1] (Human alphaherpesvirus 1, BSC-1) of 93%. The compound also displayed an MNTC in data set [2] of 50 µg/mL.
For `c1ccc(CCNNC2C3CC4CC(C3)CC2C4)cc1` (centres unmarked) [Example 2, 1-(2'-Adamantyl)-2-phenethylhydrazine hydrochloride], the IC50 in data set [3] fell in the range of 5 to 30 µg/mL.
Turning to `c1ccc(CN2CCN(NC3C4CC5CC(C4)CC3C5)CC2)cc1` (centres unmarked) [Example 16, 1-(2'-Adamantylamino)-4-benzylpiperazine dihydrochloridemonohydrate], the IC50 in data set [3] lay within 5 to 30 µg/mL. Moreover, the “Leishmania promastigote activity score” value in [4] (10 μg) and in data set [4] (100 μg) was “+++ (No viable parasites after 24 hours)” each time. Moreover, in data set [5], the “activity against Leishmania” value was “active”.
For `CN(N)C1C2CC3CC(C2)CC1C3` (centres unmarked) [Example 27, 1-(2'-Adamantyl)-1-methylhydrazine hydrochloride], the MIC in [6] (Korthof + 8% serum) was 50 µg/mL; in [6] (minimal + Pentex (0.5% albumin)) it was 6.25 µg/mL; in [6] (minimal medium) it was 3.12 µg/mL. For the same compound, the anti leptospiral activity result in data set [6] (summary in words) is listed as “active”. The results for the “Leishmania amastigote activity score” value in [7] (10 μg) and in [7] (100 μg) were “± (Partial clearance of parasites in 72 hours or more)” and “++ (clearance of all parasites in 48 hours)”, respectively. In addition, the “Leishmania promastigote activity score” value in data set [4] (100 μg) is “+++ (No viable parasites after 24 hours)”. In addition, the “activity against Leishmania” value in data set [5] is listed as “active”. Besides, the anticataleptic effect in data set [8] (rat 1) is 3/4; in [8] (rat 2), 1/4; in [8] (rat 3) it was 2/4; in data set [8] (rat 4), 3/4; in data set [8] (rat 5), 4/4. In data set [8], the antiparkinson activity entry is reported as “active”. For the same compound, the stereotyped behaviour score turned out to be 0 in [9] (50 mg/kg i.p., 0 min, mouse 1); 0 in [9] (50 mg/kg i.p., 0 min, mouse 2); 0 in [9] (50 mg/kg i.p., 0 min, mouse 3); 0 in [9] (50 mg/kg i.p., 0 min, mouse 4); 0 in [9] (50 mg/kg i.p., 30 min, mouse 1); 0 in [9] (50 mg/kg i.p., 30 min, mouse 2). The stereotyped behaviour score in [9] (50 mg/kg i.p., 30 min, mouse 3) is given as 1; in data set [9] (50 mg/kg i.p., 30 min, mouse 4) it was 0; in [9] (50 mg/kg i.p., 45 min, mouse 3) it was 1; in data set [9] (50 mg/kg i.p., 45 min, mouse 4), 1; in [9] (50 mg/kg i.p., 60 min, mouse 1), 2; in data set [9] (50 mg/kg i.p., 60 min, mouse 2), 2. Moreover, the stereotyped behaviour score in data set [9] (50 mg/kg i.p., 60 min, mouse 3) stood at 2; in data set [9] (50 mg/kg i.p., 60 min, mouse 4) it was 2; in [9] (50 mg/kg i.p., 90 min, mouse 1), 2; in data set [9] (50 mg/kg i.p., 90 min, mouse 2), 2; in [9] (50 mg/kg i.p., 90 min, mouse 3) it was 2; in data set [9] (50 mg/kg i.p., 90 min, mouse 4) it was 2. The stereotyped behaviour score in [9] (50 mg/kg i.p., 120 min, mouse 1) is given as 1; in data set [9] (50 mg/kg i.p., 120 min, mouse 2) it was 1; in data set [9] (50 mg/kg i.p., 120 min, mouse 3), 0; in data set [9] (50 mg/kg i.p., 120 min, mouse 4) it was 0; in data set [9] (50 mg/kg i.p., 135 min, mouse 1), 1; in [9] (50 mg/kg i.p., 135 min, mouse 2) it was 1. Also, the stereotyped behaviour score stood at 1 in data set [9] (50 mg/kg i.p., 150 min, mouse 1); 1 in [9] (50 mg/kg i.p., 150 min, mouse 2); 0 in data set [9] (50 mg/kg i.p., 150 min, mouse 3); 0 in data set [9] (50 mg/kg i.p., 150 min, mouse 4); 0 in [9] (50 mg/kg i.p., 180 min, mouse 1); 0 in data set [9] (50 mg/kg i.p., 180 min, mouse 2). For the same compound, the stereotyped behaviour score is 0 in data set [9] (50 mg/kg i.p., 180 min, mouse 3); 0 in [9] (50 mg/kg i.p., 180 min, mouse 4); 0 in [9] (50 mg/kg i.p., 210 min, mouse 1); 1 in data set [9] (50 mg/kg i.p., 210 min, mouse 2); 0 in [9] (50 mg/kg i.p., 210 min, mouse 3); 0 in [9] (50 mg/kg i.p., 210 min, mouse 4). Also, the stereotyped behaviour score in data set [9] (50 mg/kg i.p., 240 min, mouse 1) came out at 0; in data set [9] (50 mg/kg i.p., 240 min, mouse 2), 0; in [9] (50 mg/kg i.p., 240 min, mouse 3) it was 0; in data set [9] (50 mg/kg i.p., 240 min, mouse 4) it was 0; in [10] (45 min, mouse 1) it was 0; in [10] (45 min, mouse 2), 1. The stereotyped behaviour score amounted to 0 in data set [10] (135 min, mouse 3) and 0 in data set [10] (135 min, mouse 4). Also, the “Mean Score” value in data set [9] (50 mg/kg i.p., mean of 4 mice) stood at 6.5. The “Total Score” value is 7 in data set [9] (50 mg/kg i.p., mouse 1); 9 in [9] (50 mg/kg i.p., mouse 2); 6 in data set [9] (50 mg/kg i.p., mouse 3); 5 in [9] (50 mg/kg i.p., mouse 4). Besides, the stereotyped behaviour activity entry in [9] (summary in words) is recorded as “active”. In data set [1] (Human alphaherpesvirus 1, 25 μg/ml, BSC-1 cells, 10 PFU/cell), this compound registered an inhibition at 25 µg/mL of 46%. Moreover, in data set [1] (setting [12]), the inhibition at 50 µg/mL came out at 81%. The compound also displayed an inhibition at 100 µg/mL in data set [1] (setting [13]) of 100%. This compound also showed an MNTC in [2] of 100 µg/mL.
On to `O=C(O)CNNC1C2CC3CC(C2)CC1C3` (centres unmarked) [Example 36, [2-(2'-adamantyl)hydrazino]acetic acid hydrochloride], for which, in data set [7] (100 μg), the “Leishmania amastigote activity score” value is given as “++ (clearance of all parasites in 48 hours)”. Further, the “Leishmania promastigote activity score” value in [4] (100 μg) is on record as “++ (No viable parasites after 48 hours)”. The “activity against Leishmania” value in [5] is given as “active”. Further, the anticataleptic effect is 2/4 in data set [8] (rat 1); 1/4 in data set [8] (rat 2); 3/4 in [8] (rat 3); 2/4 in data set [8] (rat 4); 0/4 in data set [8] (rat 5). In addition, the antiparkinson activity entry in [8] is “active”. Besides, the inhibition at 50 µg/mL in data set [1] (setting [12]) was 0%. Moreover, 100 µg/mL produced 0% inhibition in data set [1] (setting [13]). For the same compound, the inhibition at 200 µg/mL in [1] (setting [13]) came to 98%. In addition, the MNTC in data set [2] worked out at 200 µg/mL.
Regarding `CC(NNC1C2CC3CC(C2)CC1C3)C(=O)O` (stereo not drawn) [Example 38, α-[2-(2'-Adamantyl)hydrazino]propionic acid hydrochloride], the “Leishmania amastigote activity score” value in data set [7] (100 μg) was “++ (clearance of all parasites in 48 hours)”. Moreover, the “Leishmania promastigote activity score” value is listed as “± (No viable parasites after 96 hours)” in data set [4] (10 μg) and “++ (No viable parasites after 48 hours)” in data set [4] (100 μg). In addition, in data set [5], the “activity against Leishmania” value was “active”.
With `CNN(C)C1C2CC3CC(C2)CC1C3` (centres unmarked) [Example 49, 1-(2'-Adamantyl)-1,2-dimethylhydrazine hydrochloride], in data set [11] (100 μg, 37° C., scoring as in b (promastigotes)), the “Trypanosoma in vitro activity score” value was “++ (No viable parasites after 48 hours)”. The “activity against Trypanosoma” value in data set [11] (summary in words) is “active”. The inhibition at 50 µg/mL in [1] (setting [12]) was determined as 60%. Moreover, in data set [1] (setting [13]), testing at 100 µg/mL gave an inhibition of 92% and the inhibition at 200 µg/mL stood at 99.9%. The MNTC in [2] was found to be 100 µg/mL.
